Assay results reported in US20230270764A1, “COMPOSITION COMPRISING CANNABINOIDS, TERPENES, AND FLAVONOIDS FOR TREATING DEPRESSION” (priority 2020, published 2023).

Assays:
[1] = test system: BV2 microglial cells; test: LPS-induced TNFα secretion by BV2 microglia cell cultures (ELISA); assay type: cell-based, murine; settings: for effect on lipopolysaccharide-induced TNFα secretion: THC 0.1, 0.5 and 1 µM, CBDA 0.2, 1 and 2 µM, CBC 0.1, 1 and 2 µM, α-pinene, β-pinene, limonene 25 or 100 µM; for IC50: Mus musculus, BV-2, read-out: IC50 for inhibiting LPS-induced TNFα release; for levels of TNFα compared to cultures treated with vehicle and LPS: 24-hours incubation, CBD 10 but not 1 µM, linalool 100 but not 25 µM, kaempferol dose-dependently at 10, 25 and 50 µM, quercetin 10 and 25 but not 5 µM
Protocol: (§1) The BV2 murine microglial cell line is used in these studies.
(§2) The BV2 cells are cultured at 37° C. in a humidified atmosphere with 5% CO2 in high D-glucose (4.5 g/L) Dulbecco’s modified Eagle’s medium (Sigma, Rehovot, Israel) supplemented with 5% heat-inactivated fetal bovine serum, streptomycin (100 µg/ml), and penicillin (100 units/ml) and sodium pyruvate (1 mM; all from Biological Industries Ltd., Kibbutz Beit Haemek, Israel). 24 hours before experiments with LPS stimulation, the BV2 cells are split into 24 well plates, 2×10^5 cells per well, covered with 1 ml of growth medium and allowed to attach overnight. 24 hr before experiments with α-synuclein, the BV2 cells are split into 96-well plates, 50,000 (5×10^4) cells per well, covered with 200 µl of growth medium and allowed to attach overnight. Cultures of BV2 microglia cells are first treated by an individual cannabinoid, or terpene or flavonoid selected from: Cannabidiol (CBD), Δ-9-tetrahydrocannabinol (THC), Δ-8-tetrahydrocannabinol (THC), cannabigerol (CBG), cannabichromene (CBC), cannabigerolic acid (CBGA), Cannabidiolic acid (CBDA), THC acid (THCA), cannabichromenic Acid (CBCA), Cannabidivarin (CBDV), tetrahydrocannabivarin (THCV), Cannabichromevarin (CBCV), Cannabichromerocin ([…]), Cannabivarin (CBV), Cannabicitran (CBT), Cannabinol (CBN), Cannabicyclol (CBL), Cannabigerorcin (CBGO), Cannabinodiol (CBND), β-caryophyllene, β-elemene, β-myrcene, linalool, α-pinene, β-pinene, eucalyptol, alpha-terpineol, valencene, geraniol (lemonol), bisabolol, nerolidol, ocimene, terpinolene, humulene, α-terpinene, camphene, fenchol, α-phellandrene, Δ3-carene, γ-cardinene, sabinene, limonene, β-amyrin, cycloartenol, cannflavin A, cannflavin B, kaempferol, quercetin, luteolin, apigenin, canniprene, orientin, β-sitosterol, vitexin, isovitexin, and chrysin. Additional cultures of BV2 microglia cells are treated by an individual cannabinoid, with at least one additional cannabinoid, and/or terpene, and/or flavonoid, and/or celecoxib. Additional cultures are exposed to the vehicle of these compounds (cremophor, ethanol and PBS, 1:1:18 (v/v/v)) (FIG. 2A). In some studies, cultures of BV2 microglia cells are treated by a specific whole plant cannabis extract, with or without supplementation with cannabinoid(s), and/or terpene(s) and/or flavonoid(s), and/or celecoxib (FIG. 2B).
For each individual cannabinoid mentioned above, 3-4 concentrations are used, ranging from 0.1 to 10 µM. For ultra-low dose Δ9-THC the concentration used is 0.01 µM. […] For celecoxib, 3-4 concentrations are used, ranging from 0.1 to 10 µM. Two hours following the treatment, the cultures are exposed to one of the following microglia stimulators: LPS (Sigma L2630; Escherichia coli serotype O111:B4) is dissolved in D-PBS (Sigma, D8537) to a pre-stock concentration of 1 mg/ml, aliquoted and stored at -80° C. Stock solution of LPS at 10 ug/ml is prepared using sterile D-PBS, followed by filtering via 0.22 µm filter membrane, aliquoting and storing in -20° C. LPS is applied into the cell medium at a final concentration of 100 ng/ml. Poly I:C (Sigma, P1530) was first dissolved in sterile, molecular grade water to the concentration of 10 mg/ml (following the manufacturer’s instructions). This stock solution was further diluted to the concentration of 1 mg/ml in sterile PBS, and the aliquots stored in -20 °C.

[2] = test system: BV2 microglial cells; test: LPS-induced IL-6 release by BV2 microglia cell cultures (ELISA); assay type: cell-based, murine
Protocol: as §1, §2
(§3) For each individual cannabinoid mentioned above, 3-4 concentrations are used, ranging from 0.1 to 10 µM. For ultra-low dose Δ9-THC the concentration used is 0.01 µM. For each individual terpene or flavonoid mentioned above, 3-4 concentrations are used, ranging from 1 to 50 µM. For celecoxib, 3-4 concentrations are used, ranging from 0.1 to 10 µM. Two hours following the treatment, the cultures are exposed to one of the following microglia stimulators: LPS (Sigma L2630; Escherichia coli serotype O111:B4) is dissolved in D-PBS (Sigma, D8537) to a pre-stock concentration of 1 mg/ml, aliquoted and stored at -80° C. Stock solution of LPS at 10 ug/ml is prepared using sterile D-PBS, followed by filtering via 0.22 µm filter membrane, aliquoting and storing in -20° C. LPS is applied into the cell medium at a final concentration of 100 ng/ml. Poly I:C (Sigma, P1530) was first dissolved in sterile, molecular grade water to the concentration of 10 mg/ml (following the manufacturer’s instructions). This stock solution was further diluted to the concentration of 1 mg/ml in sterile PBS, and the aliquots stored in -20 °C.

[3] = test system: LPS-injected mice; test: Body weight change and food consumption in the LPS-induced model of depression; assay type: in vivo; settings: Example 9; male C57BL/6, i.p. 1 h before LPS 330 µg/kg; mg/kg: CBD 30; CBD 30 plus THC 10; cannabinol 10; CBD 30 plus BCP 50
From the text: Animals were housed 2-3/cage, kept in an air-conditioned room (23+°C) and given ad libitum access to food and water. The mice were kept in a reversed light/dark cycle, with lights off from 7 a.m. to 7 p.m. All experiments were approved by the Hebrew University of Jerusalem Ethics Committee on Animal Care and Use. In preparation for the Sucrose Preference Test, mice were habituated 2-3 times to sucrose drinking, by exposing them overnight to two graduated tubes, one containing water and the other containing sucrose solution (1%, w/v). Water and sucrose consumption were measured, and sucrose preference was computed by dividing the amount of sucrose consumed by drinking (ml sucrose) by the total drinking volume (ml of sucrose + water). One day later, the weight of the mice and the food in their cages was weighed for later analysis of food consumption and body weight changes. Groups of mice were injected intraperitoneally (i.p.) with either vehicle (cremophor, ethanol and PBS, 1:1:18 (v/v/v)) or a cannabinoid-based formulation (by itself or with another cannabinoid, or a terpene or a flavonoid). One hour later, each of these groups was injected with LPS (330 µg/kg). All injections were administered at a dose of 10 ml/kg. Four hours following the LPS injection, mice were tested in the Open-Field Test. In this test, the measured locomotor activity reflects not only motor capacity, but particularly the innate motivation for spatial exploration (which increases the distance travelled) and the anxiety level (which reduces the distance travelled, in general, and particularly the distance and time spent in the center of the open field). Each subject was placed near one of the walls of a white 50 X 50 cm^2 arena with 40 cm high walls. The distance travelled (cm), the velocity of the movement (cm/second), the time spent (seconds), distance travelled (cm) in the center area of the arena, as well as the number of entries from the perimeter area into the center of the arena were automatically measured over a 4-minute period, using EthoVision XT video tracking system and software (Noldus, The Netherlands). Twenty-four hours after the LPS injection, mice were tested in the Social Exploration Test. In this test, the subject was placed in an observation cage containing a small metal wire mesh cage with a conspecific mouse inside it. Social exploration, defined as the time of near contact between the nose of the subject and the juvenile in the small cage was recorded for 4 min, using computerized in-house software. Sucrose preference was assessed, as described above, between 8 to 27 hr post LPS injection. Body weight and weight of the food were measured two hours before the LPS injection, and again after 24 hours, and the change in body weight and food consumption were calculated.
This particular study was conducted in several experimental cohorts, and not all compounds and all measures were studied in all cohort. However, each cohort included a vehicle-treated group; therefore, the scores in each behavioral test were converted to % of mean vehicle-treated group in every individual cohort/experiment. Statistical comparisons were computed using SPSS software and consisted of one-way analyses of variance (ANOVA), followed by post-hoc comparisons with the Student-Newman-Keuls method.

[4] = test system: BV2 microglial cells; test: α-synuclein-induced TNFα secretion by BV2 microglia cell cultures; assay type: cell-based, murine; settings: Mus musculus
Protocol: as §2
as §3, with “°C. […] To induce oligomerization, α-Synuclein solution is placed for 24 hours on a shaker with agitation of 80 rpm and at 37° C.” for “°C.”

[5] = test system: BV2 microglial cells; test: LPS-induced IL-1β release by BV2 microglia cell cultures (ELISA); assay type: cell-based, murine
Protocol: as §1, §2, §3

CCCCCc1cc(O)c2c(c1)OC(C)(CCC=C(C)C)C=C2 (stereo not shown) [CBC, cannabichromene]
effect on lipopolysaccharide-induced TNFα secretion [1]: no effect

C=C(C)[C@@H]1CCC(C)=C[C@H]1c1c(O)cc(CCC)cc1O [CBDV, cannabidivarin]
IL-6 secretion vs Veh plus LPS ([2]; Example 6, CBD or CBDV given by themselves): no significant effect
times less potent than CBD in inhibiting IL-6 release ([2]; Example 6, IC50 comparison): about 2 times
IC50 ([2]; Mus musculus, BV-2, Example 6 (FIG. 7D), by itself, read-out: IC50 for inhibiting LPS-induced IL-6 release): 9.6 µM
times less potent than CBD in inhibiting TNFα release ([1]; Example 6, IC50 comparison): ~6 times
release of TNFα vs LPS-activated cultures treated with vehicle ([1]; Example 6, by itself, CBD 1, 2.5 and 5 µM, CBDV 1, 2.5, 5 and 10 µM): no concentration of either CBD or CBDV by itself affected release of TNFα
IC50 [1]: 27.9 µM

CCCCCc1cc(O)c2c(c1)OC(C)(C)[C@@H]1CCC(C)=C[C@@H]21 [THC, Δ-9 tetrahydrocannabinol]
effect on lipopolysaccharide-induced TNFα secretion [1]: no effect

CCCCCc1cc(O)c2c(c1)OC(C)(C)c1ccc(C)cc1-2 [cannabinol]
food consumption over 24 hr vs vehicle-treated group [3]: consumed significantly less food

Cc1ccc(-c2cc(C(F)(F)F)nn2-c2ccc(S(N)(=O)=O)cc2)cc1 [celecoxib]
IC50 ([4]; BV-2, Example 8 (FIG. 9B), by itself, read-out: IC50, α-synuclein-induced TNFα release): 4.2 µM
IC50 ([4]; BV-2, addition of 1 µM CBD, read-out: celecoxib IC50, α-synuclein-induced TNFα release): 2 µM
IC50 ([4]; BV-2, addition of 2.5 µM CBD, read-out: celecoxib IC50, α-synuclein-induced TNFα release): 1.7 µM
IC50 ([4]; BV-2, addition of 5 µM CBD, read-out: celecoxib IC50, α-synuclein-induced TNFα release): 1.1 µM

C=C(C)[C@H]1CC=C(C)CC1 [limonene]
effect on lipopolysaccharide-induced TNFα secretion [1]: no effects

C=CC(C)(O)CCC=C(C)C (stereo not shown) [linalool]
levels of TNFα compared to cultures treated with vehicle and LPS [1]: reduced

O=c1c(O)c(-c2ccc(O)c(O)c2)oc2cc(O)cc(O)c12 [quercetin]
IL-1β release vs Veh plus LPS ([5]; Example 5, alone at 5 µM, no effect at 1 and 2.5 µM): significantly decreased IL-1β levels
IC50 ([5]; Mus musculus, BV-2, Example 5 (FIG. 6D), by itself, read-out: IC50 for inhibiting LPS-induced IL-1β release): 2.6 µM
levels of TNFα compared to cultures treated with vehicle and LPS [1]: reduced
release of TNFα vs LPS-activated cultures treated with vehicle ([1]; Example 5, by themselves, CBD 1 and 2.5 µM, quercetin 1, 2.5 and 5 µM): did not affect
IC50 [1]: 6.2 µM

CC1=CCC2CC1C2(C)C (stereo not drawn) [α-pinene]
effect on lipopolysaccharide-induced TNFα secretion [1]: no effects

C=C1CCC2CC1C2(C)C (stereo not drawn) [β-pinene]
effect on lipopolysaccharide-induced TNFα secretion [1]: no effects
